biological target: T1, human GLUT1 (Homo sapiens, UniProt P11166); test: [3H]-deoxy-D-glucose uptake assay, GLUT1; format: cell-based; details: [3H]-deoxy-D-glucose uptake in HEK293 cells stably expressing human GLUT1
T1 construct: expressed in transfected cells
T1 sequence (P11166 1-492): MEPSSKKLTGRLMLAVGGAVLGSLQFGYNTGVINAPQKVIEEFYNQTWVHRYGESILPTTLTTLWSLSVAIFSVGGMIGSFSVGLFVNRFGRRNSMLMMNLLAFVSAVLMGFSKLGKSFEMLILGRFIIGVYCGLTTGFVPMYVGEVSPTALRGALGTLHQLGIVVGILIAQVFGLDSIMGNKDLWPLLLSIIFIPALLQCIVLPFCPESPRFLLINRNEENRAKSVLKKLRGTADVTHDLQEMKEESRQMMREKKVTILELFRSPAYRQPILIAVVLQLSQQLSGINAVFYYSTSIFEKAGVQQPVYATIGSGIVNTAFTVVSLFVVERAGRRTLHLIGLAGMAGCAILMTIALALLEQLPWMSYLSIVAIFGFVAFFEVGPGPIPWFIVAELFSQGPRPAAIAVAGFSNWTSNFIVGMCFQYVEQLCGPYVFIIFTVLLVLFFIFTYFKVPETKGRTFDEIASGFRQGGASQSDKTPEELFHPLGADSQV
Protocol: HEK293 cells were engineered to stably express either human GLUT1, GLUT2, GLUt3 or GLUT4 by transfection with the pReceiver-Lv105 plasmid, containing either hGLUT1, hGLUT2, hGLUT3, or hGLUT4 gene constructs with lipofectamine 2000, hGLUT1- hGLUT2- hGLUT3- or hGLUT4-overexpressing polyclonal populations were isolated under purinomycin selective pressure (1 μg/ml) and maintained in Dulbecco's modified Eagle's medium supplemented with 1 μg/ml purinomycin+10% foetal bovine serum (FBS).
60,000 cells per well were seeded overnight into poly-D-lysine coasted 96-well plates. […] 90 μl of test compounds were added in glucose-free uptake buffer and cells were incubated at 37° C. for 30 min.
Cells were then washed twice with ice-cold PBS and 100 μl of Microscint-20 was added per well. Glucose uptake was quantified with a scintillation counter. The half maximal inhibitory concentration (IC50) (a measure of the effectiveness of the test compound in inhibiting glucose uptake) was determined.

| GLUT1 pIC50 | SMILES |
| --- | --- |
| ++ (pIC50 5.00-5.99) | CC(=O)N1CCN(Cc2c(-c3cccc([N+](=O)[O-])c3)nc3ccc(-c4ccccc4)cn23)CC1 [Compound 59] |
| + (pIC50 4.00-4.99) | CC(C)CC(=O)N1CCN(Cc2c(-c3cccc([N+](=O)[O-])c3)nc3ccc(-c4ccccc4)cn23)CC1 [Compound 60] |
| +++ (pIC50 ≧ 6.00) | CC(=O)N1CCN(Cc2c(-c3ccc(Cl)cc3)nc3ccc(-c4ccccc4)cn23)CC1 [Compound 61] |
| +++ (pIC50 ≧ 6.00) | CCC(=O)N1CCN(Cc2c(-c3ccc(Cl)cc3)nc3ccc(-c4ccccc4)cn23)CC1 [Compound 62] |
| + (pIC50 4.00-4.99) | O=C(c1ccccc1Cl)N1CCN(Cc2c(-c3ccc(Cl)cc3)nc3ccc(-c4ccccc4)cn23)CC1 [Compound 64] |
| ++ (pIC50 5.00-5.99) | COc1cccc(-c2nc3ccc(-c4ccccc4)cn3c2CN2CCN(C(=O)CC(C)(C)C)CC2)c1 [Compound 65] |
| ++ (pIC50 5.00-5.99) | O=C(C1CCCC1)N1CCN(Cc2c(-c3cccc([N+](=O)[O-])c3)nc3ccc(-c4ccccc4)cn23)CC1 [Compound 66] |
| +++ (pIC50 ≧ 6.00) | Cc1ccc(-c2nc3ccc(-c4ccccc4)cn3c2CN2CCN(C(=O)c3cccs3)CC2)cc1 [Compound 67] |
| + (pIC50 4.00-4.99) | COc1ccc(NC(=O)N2CCN(Cc3c(-c4ccc(Cl)cc4)nc4ccc(-c5ccccc5)cn34)CC2)cc1 [Compound 68] |
| +++ (pIC50 ≧ 6.00) | Cc1ccc(C(=O)N2CCN(Cc3c(-c4ccc(Cl)cc4)nc4ccc(-c5ccccc5)cn34)CC2)cc1 [Compound 69] |
| +++ (pIC50 ≧ 6.00) | COc1ccc(C(=O)N2CCN(Cc3c(-c4ccc(F)cc4)nc4ccc(-c5ccccc5)cn34)CC2)cc1 [Compound 70] |
| +++ (pIC50 ≧ 6.00) | COc1cccc(-c2nc3ccc(-c4ccccc4)cn3c2CN2CCN(C(=O)c3ccccc3F)CC2)c1 [Compound 71] |
| +− (pIC50 < 4.00) | c1ccc(-c2ccc3nc(-c4ccncc4)c(CN4CCOCC4)n3c2)cc1 [Compound 72] |
| + (pIC50 4.00-4.99) | COCc1c(-c2ccc(Cl)cc2)nc2ccc(-c3ccccc3)cn12 [Compound 73] |
| +++ (pIC50 ≧ 6.00) | Clc1ccc(-c2nc3cnc(-c4ccccc4)cn3c2CN2CCOCC2)cc1 [Compound 75] |
| +− (pIC50 < 4.00) | Clc1ccc(-c2nc3ncc(-c4ccccc4)cn3c2CN2CCOCC2)cc1 [Compound 77] |
| +− (pIC50 < 4.00) | CCNC(=O)c1nc2ccc(-c3ccccc3)cn2c1CN1CCOCC1 [Compound 78] |
| + (pIC50 4.00-4.99) | Fc1cccc(-c2ccc3nc(-c4ccc(Cl)cc4)c(CN4CCOCC4)n3c2)c1 [Compound 81] |
| ++ (pIC50 5.00-5.99) | Clc1ccc(-c2nc3ccc(-c4ccncc4)cn3c2CN2CCOCC2)cc1 [Compound 82] |

| GLUT1 pIC50 | SMILES |
| --- | --- |
| ++ (pIC50 5.00-5.99) | Clc1ccc(-c2nc3ccc(-c4cccnc4)cn3c2CN2CCOCC2)cc1 [Compound 83] |
| ++ (pIC50 5.00-5.99) | COc1cccc(-c2ccc3nc(-c4ccc(Cl)cc4)c(CN4CCOCC4)n3c2)c1 [Compound 84] |
| ++ (pIC50 5.00-5.99) | COc1ccccc1-c1ccc2nc(-c3ccc(Cl)cc3)c(CN3CCOCC3)n2c1 [Compound 85] |
| + (pIC50 4.00-4.99) | COc1ccc(-c2ccc3nc(-c4ccc(Cl)cc4)c(CN4CCOCC4)n3c2)cc1 [Compound 86] |
| ++ (pIC50 5.00-5.99) | Clc1ccc(-c2nc3ccc(C4CC4)cn3c2CN2CCOCC2)cc1 [Compound 87] |
| +− (pIC50 < 4.00) | CC(C)(C)OC(=O)N1CCN(Cc2c(-c3ccc(Cl)cc3)nc3ccc(-c4ccccc4)cn23)CC1 [Compound 88] |
| + (pIC50 4.00-4.99) | Clc1ccc(-c2nc3ccc(-c4ccccc4)cn3c2CN2CCNCC2)cc1 [Compound 89] |
| +− (pIC50 < 4.00) | O=S(=O)(c1cccc(F)c1)N1CCN(Cc2c(-c3ccc(Cl)cc3)nc3ccc(-c4ccccc4)cn23)CC1 [Compound 90] |
| +− (pIC50 < 4.00) | N#Cc1cccc(-c2ccc3nc(-c4ccc(Cl)cc4)c(CN4CCOCC4)n3c2)c1 [Compound 92] |
| + (pIC50 4.00-4.99) | NC(=O)c1ccccc1-c1ccc2nc(-c3ccc(Cl)cc3)c(CN3CCOCC3)n2c1 [Compound 94] |
| + (pIC50 4.00-4.99) | NC(=O)c1ccc(-c2ccc3nc(-c4ccc(Cl)cc4)c(CN4CCOCC4)n3c2)cc1 [Compound 95] |
| + (pIC50 4.00-4.99) | CN(C)Cc1c(-c2ccc(Cl)cc2)nc2ccc(-c3ccccc3)cn12 [Compound 97] |
| + (pIC50 4.00-4.99) | N#Cc1cccc(-c2nc3ccc(-c4ccccc4)cn3c2CN2CCOCC2)c1 [Compound 100] |
| ++ (pIC50 5.00-5.99) | COc1ccc(-c2nc3ccc(-c4ccccc4)cn3c2CN2CCOCC2)cc1 [Compound 101] |
| ++ (pIC50 5.00-5.99) | COc1cccc(-c2nc3ccc(-c4ccccc4)cn3c2CN2CCOCC2)c1 [Compound 102] |
| + (pIC50 4.00-4.99) | c1ccc(-c2ccc3nc(-c4ccccc4)c(CN4CCOCC4)n3c2)cc1 [Compound 103] |
| + (pIC50 4.00-4.99) | COc1ccccc1-c1nc2ccc(-c3ccccc3)cn2c1CN1CCOCC1 [Compound 104] |
| ++ (pIC50 5.00-5.99) | Clc1ccccc1-c1nc2ccc(-c3ccccc3)cn2c1CN1CCOCC1 [Compound 105] |
| +− (pIC50 < 4.00) | N#Cc1ccc(-c2nc3ccc(-c4ccccc4)cn3c2CN2CCOCC2)cc1 [Compound 106] |

| GLUT1 pIC50 | SMILES |
| --- | --- |
| ++ (pIC50 5.00-5.99) | Clc1cccc(-c2nc3ccc(-c4ccccc4)cn3c2CN2CCOCC2)c1 [Compound 107] |
| +− (pIC50 < 4.00) | NC(=O)c1ccc(-c2nc3ccc(-c4ccccc4)cn3c2CN2CCOCC2)cc1 [Compound 109] |
| + (pIC50 4.00-4.99) | Clc1ccc(-c2nc3ccc(-c4cncnc4)cn3c2CN2CCOCC2)cc1 [Compound 110] |
| ++ (pIC50 5.00-5.99) | FC(F)(F)c1ccc(-c2nc3ccc(-c4ccccc4)cn3c2CN2CCOCC2)cc1 [Compound 112] |
| +++ (pIC50 ≧ 6.00) | Cc1ccccc1-c1ccc2nc(-c3ccc(Cl)cc3)c(CN3CCOCC3)n2c1 [Compound 115] |
| + (pIC50 4.00-4.99) | CCN(CC)C(=O)c1ccc2nc(-c3ccc(Cl)cc3)c(CN3CCOCC3)n2c1 [Compound 117] |
| + (pIC50 4.00-4.99) | CCNC(=O)c1ccc2nc(-c3ccc(Cl)cc3)c(CN3CCOCC3)n2c1 [Compound 118] |
| ++ (pIC50 5.00-5.99) | Clc1ccc(-c2nc3ccc(-c4cccs4)cn3c2CN2CCOCC2)cc1 [Compound 119] |
| ++ (pIC50 5.00-5.99) | Clc1ccc(-c2nc3ccc(-c4ccccn4)cn3c2CN2CCOCC2)cc1 [Compound 120] |
| +− (pIC50 < 4.00) | CCNC(=O)c1cccc2nc(-c3ccc(Cl)cc3)c(CN3CCOCC3)n12 [Compound 121] |
| ++ (pIC50 5.00-5.99) | Clc1ccc(-c2nc3ccc(N4CCOCC4)cn3c2CN2CCOCC2)cc1 [Compound 122] |
| + (pIC50 4.00-4.99) | CN1CCN(Cc2c(-c3ccc(Cl)cc3)nc3ccc(-c4ccccc4)cn23)CC1 [Compound 125] |
| +++ (pIC50 ≧ 6.00) | COc1ccccc1C(=O)N1CCN(Cc2c(-c3ccc(Cl)cc3)nc3ccc(-c4ccccc4)cn23)CC1 [Compound 128] |
| +++ (pIC50 ≧ 6.00) | COc1cccc(C(=O)N2CCN(Cc3c(-c4ccc(Cl)cc4)nc4ccc(-c5ccccc5)cn34)CC2)c1 [Compound 129] |
| ++ (pIC50 5.00-5.99) | O=C1CN(Cc2c(-c3ccc(Cl)cc3)nc3ccc(-c4ccccc4)cn23)CCN1 [Compound 130] |
| +++ (pIC50 ≧ 6.00) | O=C(C1CC1)N1CCN(Cc2c(-c3ccc(Cl)cc3)nc3ccc(-c4ccccc4)cn23)CC1 [Compound 133] |
| ++ (pIC50 5.00-5.99) | O=C1CN(Cc2c(-c3ccc(Cl)cc3)nc3ccc(-c4ccccc4)cn23)CCN1Cc1ccccc1 [Compound 134] |
| + (pIC50 4.00-4.99) | c1ccc(-c2ccc3nc(-c4cccnc4)c(CN4CCOCC4)n3c2)cc1 [Compound 139] |
| +++ (pIC50 ≧ 6.00) | O=C(c1ccccn1)N1CCN(Cc2c(-c3ccc(Cl)cc3)nc3ccc(-c4ccccc4)cn23)CC1 [Compound 144] |

| SMILES | GLUT1 pIC50 |
| --- | --- |
| O=C(Cc1ccc(F)cc1)N1CCN(Cc2c(-c3ccc(Cl)cc3)nc3ccc(-c4ccccc4)cn23)CC1 [Compound 63] | ++ (pIC50 5.00-5.99) |
| Fc1ccc(-c2nc3ccc(-c4ccccc4)cn3c2CN2CCOCC2)cc1 [Compound 76] | + (pIC50 4.00-4.99) |
| Clc1ccc(-c2nc3ccc(-c4ccccc4)cn3c2CN2CCCCC2)cc1 [Compound 98] | + (pIC50 4.00-4.99) |
| Clc1ccc(-c2nc3ccc(Br)cn3c2CN2CCOCC2)cc1 [Compound 124] | + (pIC50 4.00-4.99) |

Reference: patent US20160120863A1, “SLC2A TRANSPORTER INHIBITORS” (IOMET PHARMA LTD., priority 2013, published 2016)
